Literature values in PMC7855644 (Journal of pharmaceutical sciences, 2020).
Where no end group is shown, it is not given here.

Test system: blood brain barrier

In vivo transcytosis: lack of in vivo transcytosis
Substance: TFFYGGSRGRRNNFRTEEY-NH2 [Peptide A7]
